Test results published in ChEMBL document CHEMBL5055685, “Discovery of the First Potent IDO1/IDO2 Dual Inhibitors: A Promising Strategy for Cancer Immunotherapy” (J Med Chem, 2021).
Activity calls are given as the source filed them. No cut-off for these calls is given here.

Experiments:
[1] = target: Serine/threonine-protein kinase 16 (Homo sapiens) (UniProt O75716); assay: Inhibition of STK16 (unknown origin) at 1 uM
[2] = target: Myosin light chain kinase 2, skeletal/cardiac muscle (Homo sapiens) (UniProt Q9H1R3); assay: Inhibition of MLCK2 (unknown origin) at 1 uM
[3] = test system: HCT-116; assay: Antitumor immunity in BALB/c mouse xenografted with human HCT-116 cells assessed as necrotic Treg cells in tumor-draining lymph nodes by propidium iodide staining based flow cytometry analysis (reference value: 3.91 %); format: functional
[4] = Metabolic stability in mouse liver microsomes assessed as rate constant; format: ADME, Microsome
[5] = test system: HCT-116; assay: Antitumor immunity in BALB/c mouse xenografted with human HCT-116 cells assessed as increase in IL-2 in serum by […]; format: functional, cell-based
[6] = target: Testis-specific serine/threonine-protein kinase 6 (Homo sapiens) (UniProt Q9BXA6); assay: Inhibition of SSTK (unknown origin) at 1 uM
[7] = target: Non-receptor tyrosine-protein kinase TNK1 (Homo sapiens) (UniProt Q13470); assay: Inhibition of TNK1 (unknown origin) at 1 uM
[8] = target: Serine/threonine-protein kinase PLK2 (Homo sapiens) (UniProt Q9NYY3); assay: Inhibition of PLK2 (unknown origin) at 1 uM
[9] = Volume of distribution at steady state in Sprague-Dawley rat at 5 mg/kg, iv; format: ADME, organism-based; conditions: in vivo, read-out: Vdss
[10] = target: Serine/threonine-protein kinase N3 (Homo sapiens) (UniProt Q6P5Z2); assay: Inhibition of PKN3 (unknown origin) at 1 uM
[11] = target: Protein kinase C alpha type (Homo sapiens) (UniProt P17252); assay: Inhibition of PKCalpha (unknown origin)at 1 uM
[12] = target: Casein kinase II subunit alpha' (Homo sapiens) (UniProt P19784); assay: Inhibition of CK2A2 (unknown origin) at 1 uM
[13] = target: Bone morphogenetic protein receptor type-1A (Homo sapiens) (UniProt P36894); assay: Inhibition of ALK3 (unknown origin) at 1 uM
[14] = target: Mitogen-activated protein kinase kinase kinase kinase 5 (Homo sapiens) (UniProt Q9Y4K4); assay: Inhibition of KHS (unknown origin) at 1 uM
[15] = target: Serine/threonine-protein kinase ICK (Homo sapiens) (UniProt Q9UPZ9); assay: Inhibition of LCK2 (unknown origin) at 1 uM
[16] = target: SRSF protein kinase 1 (Homo sapiens) (UniProt Q96SB4); assay: Inhibition of SRPK1 (unknown origin) at 1 uM
[17] = test system: Mus musculus; assay: In vivo inhibition of IDO2 in BALB/c mouse xenografted with human HCT-116 cells assessed as suppression of IDO2 expression in tumor by immunohistochemical assay; format: functional, organism-based
[18] = target: Tyrosine-protein kinase Blk (Homo sapiens) (UniProt P51451); assay: Inhibition of BLK (unknown origin) at 1 uM
[19] = target: Angiopoietin-1 receptor (Homo sapiens) (UniProt Q02763); assay: Inhibition of TIE2 (unknown origin) at 1 uM
[20] = test system: Mus musculus; assay: In vivo inhibition of IDO1/IDO2 in BALB/c mouse xenografted with human HCT-116 cells assessed as reduction in KYN level in serum by […]; format: functional, organism-based
[21] = target: Serine/threonine-protein kinase PAK 4 (Homo sapiens) (UniProt O96013); assay: Inhibition of PAK4 (unknown origin) at 1 uM
[22] = target: Indoleamine 2,3-dioxygenase 1 (Mus musculus) (UniProt P28776); assay: In vivo inhibition of IDO1 in BALB/c mouse xenografted with human HCT-116 cells assessed as suppression of IDO1 mRNA expression in tumor by quantitative RT-PCR analysis; format: functional, organism-based
[23] = target: Cyclin-dependent kinase 1/cyclin B1 (Homo sapiens) (UniProt P06493+P14635); assay: Inhibition of CDK1/cyclinB (unknown origin) at 1 uM; format: protein-complex assay
[24] = Efflux ratio of apparent permeability across basolateral to apical over apical to basolateral side in human Caco-2 cells; format: ADME, cell-based
[25] = test system: Rattus norvegicus; assay: Toxicity in rat assessed as rat death at […]; format: organism-based; conditions: in vivo
[26] = Intrinsic clearance in human liver microsomes; format: ADME, Microsome; conditions: read-out: CLH
[27] = target: Calcium/calmodulin-dependent protein kinase type 1D (Homo sapiens) (UniProt Q8IU85); assay: Inhibition of CAMK1D (unknown origin) at 1 uM
[28] = target: Serine/threonine-protein kinase NLK (Homo sapiens) (UniProt Q9UBE8); assay: Inhibition of NLK (unknown origin) at 1 uM
[29] = Apparent permeability across apical to basolateral side in human Caco-2 cells; format: ADME, cell-based
[30] = species on record: Homo sapiens; assay: Inhibition of MLCK (unknown origin) at 1 uM
[31] = Protein binding in ICR mouse plasma by equilibrium dialysis; format: ADME, cell-free; conditions: read-out: PPB (converted)
[32] = target: Aurora kinase A (Homo sapiens) (UniProt O14965); assay: Inhibition of Aurora A (unknown origin) at 1 uM
[33] = target: Mitogen-activated protein kinase kinase kinase 2 (Homo sapiens) (UniProt Q9Y2U5); assay: Inhibition of MEKK2 (unknown origin) at 1 uM
[34] = target: Tyrosine-protein kinase TXK (Homo sapiens) (UniProt P42681); assay: Inhibition of TXK (unknown origin) at 1 uM
[35] = target: MAP/microtubule affinity-regulating kinase 3 (Homo sapiens) (UniProt P27448); assay: Inhibition of MARK3 (unknown origin) at 1 uM
[36] = target: Interleukin-1 receptor-associated kinase 1 (Homo sapiens) (UniProt P51617); assay: Inhibition of IRAK1 (unknown origin) at 1 uM
[37] = target: Ephrin type-A receptor 3 (Homo sapiens) (UniProt P29320); assay: Inhibition of EPHA3 (unknown origin) at 1 uM
[38] = target: Serine/threonine-protein kinase NIM1 (Homo sapiens) (UniProt Q8IY84); assay: Inhibition of NIM1 (unknown origin) at 1 uM
[39] = target: Inhibitor of nuclear factor kappa-B kinase subunit beta (Homo sapiens) (UniProt O14920); assay: Inhibition of IKKbeta (unknown origin) at 1 uM
[40] = target: Death-associated protein kinase 1 (Homo sapiens) (UniProt P53355); assay: Inhibition of DAPK1 (unknown origin) at 1 uM
[41] = test system: HCT-116; assay: Antitumor immunity in BALB/c mouse xenografted with human HCT-116 cells assessed as increase in IFNgamma in serum by […]; format: functional, cell-based
[42] = target: CDK2/Cyclin O (Homo sapiens) (UniProt P24941+P22674); assay: Inhibition of CDK2/cyclin-O (unknown origin) at 1 uM; format: protein-complex assay
[43] = target: Homeodomain-interacting protein kinase 1 (Homo sapiens) (UniProt Q86Z02); assay: Inhibition of HIPK1 (unknown origin) at 1 uM
[44] = target: Serine/threonine-protein kinase SBK1 (Homo sapiens) (UniProt Q52WX2); assay: Inhibition of SBK1 (unknown origin) at 1 uM

Chain of Tyrosine-protein kinase TXK (Homo sapiens) (P42681 whole entry): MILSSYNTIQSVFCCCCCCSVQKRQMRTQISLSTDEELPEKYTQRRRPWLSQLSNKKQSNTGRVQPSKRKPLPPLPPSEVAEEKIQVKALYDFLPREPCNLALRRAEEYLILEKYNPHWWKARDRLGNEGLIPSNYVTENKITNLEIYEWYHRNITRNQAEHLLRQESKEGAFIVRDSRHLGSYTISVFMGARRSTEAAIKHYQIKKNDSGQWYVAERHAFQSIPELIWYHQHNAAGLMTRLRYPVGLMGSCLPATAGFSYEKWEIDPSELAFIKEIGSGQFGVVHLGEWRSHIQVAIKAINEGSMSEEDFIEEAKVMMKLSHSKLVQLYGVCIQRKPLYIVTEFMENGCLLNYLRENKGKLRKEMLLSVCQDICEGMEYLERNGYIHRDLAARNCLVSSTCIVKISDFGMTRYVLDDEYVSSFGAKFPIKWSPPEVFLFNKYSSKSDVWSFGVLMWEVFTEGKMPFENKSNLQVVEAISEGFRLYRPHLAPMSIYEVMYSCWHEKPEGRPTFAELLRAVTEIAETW
Chain of Interleukin-1 receptor-associated kinase 1 (Homo sapiens) (P51617 whole entry, looked up): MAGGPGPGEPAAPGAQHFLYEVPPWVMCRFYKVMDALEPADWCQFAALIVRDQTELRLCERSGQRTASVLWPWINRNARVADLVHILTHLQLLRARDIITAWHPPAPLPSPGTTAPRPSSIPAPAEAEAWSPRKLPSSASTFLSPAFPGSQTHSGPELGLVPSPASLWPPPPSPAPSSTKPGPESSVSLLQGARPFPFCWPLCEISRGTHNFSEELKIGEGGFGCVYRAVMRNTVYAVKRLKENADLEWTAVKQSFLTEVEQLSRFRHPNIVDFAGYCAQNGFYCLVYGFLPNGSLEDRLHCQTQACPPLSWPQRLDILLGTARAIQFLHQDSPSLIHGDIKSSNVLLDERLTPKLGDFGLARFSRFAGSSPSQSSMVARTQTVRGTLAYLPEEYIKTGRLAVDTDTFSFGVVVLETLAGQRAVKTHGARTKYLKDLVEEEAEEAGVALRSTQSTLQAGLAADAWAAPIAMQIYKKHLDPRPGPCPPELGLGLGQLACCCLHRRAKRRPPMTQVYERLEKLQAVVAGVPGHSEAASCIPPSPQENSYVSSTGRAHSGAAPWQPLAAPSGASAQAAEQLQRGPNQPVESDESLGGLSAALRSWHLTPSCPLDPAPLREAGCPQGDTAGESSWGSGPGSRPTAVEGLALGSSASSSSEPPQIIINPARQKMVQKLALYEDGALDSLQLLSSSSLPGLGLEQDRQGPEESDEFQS
Chain of MAP/microtubule affinity-regulating kinase 3 (Homo sapiens) (P27448 whole entry, looked up): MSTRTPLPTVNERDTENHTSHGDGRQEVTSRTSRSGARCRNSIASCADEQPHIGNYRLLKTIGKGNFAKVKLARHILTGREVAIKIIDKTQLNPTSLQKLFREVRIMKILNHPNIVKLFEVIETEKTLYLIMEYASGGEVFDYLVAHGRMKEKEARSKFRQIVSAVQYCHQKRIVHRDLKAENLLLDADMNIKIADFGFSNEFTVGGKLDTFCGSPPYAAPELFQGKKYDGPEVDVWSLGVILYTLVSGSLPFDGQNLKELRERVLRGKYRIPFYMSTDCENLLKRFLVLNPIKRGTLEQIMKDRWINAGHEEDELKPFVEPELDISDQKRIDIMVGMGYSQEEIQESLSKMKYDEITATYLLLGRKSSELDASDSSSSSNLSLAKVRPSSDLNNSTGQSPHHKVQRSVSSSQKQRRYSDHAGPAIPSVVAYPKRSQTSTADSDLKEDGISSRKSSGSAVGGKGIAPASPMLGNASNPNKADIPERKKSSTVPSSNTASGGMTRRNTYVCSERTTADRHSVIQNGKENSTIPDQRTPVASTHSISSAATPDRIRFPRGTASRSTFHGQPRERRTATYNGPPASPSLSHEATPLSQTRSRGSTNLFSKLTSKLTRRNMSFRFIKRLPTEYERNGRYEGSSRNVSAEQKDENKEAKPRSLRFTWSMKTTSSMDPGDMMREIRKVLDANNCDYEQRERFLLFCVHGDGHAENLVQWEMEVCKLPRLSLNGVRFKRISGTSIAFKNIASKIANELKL
Chain of Serine/threonine-protein kinase PLK2 (Homo sapiens) (Q9NYY3 whole entry, looked up): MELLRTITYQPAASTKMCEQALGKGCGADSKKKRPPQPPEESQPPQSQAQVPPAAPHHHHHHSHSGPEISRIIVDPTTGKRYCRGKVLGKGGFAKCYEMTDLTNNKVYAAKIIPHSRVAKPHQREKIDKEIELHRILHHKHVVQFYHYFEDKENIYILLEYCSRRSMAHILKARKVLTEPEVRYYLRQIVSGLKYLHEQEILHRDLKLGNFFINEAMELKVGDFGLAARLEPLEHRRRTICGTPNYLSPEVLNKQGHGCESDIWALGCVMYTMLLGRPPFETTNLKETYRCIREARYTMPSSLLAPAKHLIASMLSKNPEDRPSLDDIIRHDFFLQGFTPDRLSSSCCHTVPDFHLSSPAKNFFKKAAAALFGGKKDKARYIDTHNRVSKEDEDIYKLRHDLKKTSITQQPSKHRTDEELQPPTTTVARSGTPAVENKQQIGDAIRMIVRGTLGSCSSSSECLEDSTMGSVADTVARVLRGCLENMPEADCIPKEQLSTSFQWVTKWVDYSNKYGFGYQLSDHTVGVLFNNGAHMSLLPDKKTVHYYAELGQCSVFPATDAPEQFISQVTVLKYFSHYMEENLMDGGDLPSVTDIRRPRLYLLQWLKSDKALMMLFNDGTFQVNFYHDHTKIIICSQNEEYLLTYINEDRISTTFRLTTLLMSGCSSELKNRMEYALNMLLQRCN
Chain of Cyclin-dependent kinase 1/cyclin B1 (Homo sapiens) (P06493 whole entry, looked up): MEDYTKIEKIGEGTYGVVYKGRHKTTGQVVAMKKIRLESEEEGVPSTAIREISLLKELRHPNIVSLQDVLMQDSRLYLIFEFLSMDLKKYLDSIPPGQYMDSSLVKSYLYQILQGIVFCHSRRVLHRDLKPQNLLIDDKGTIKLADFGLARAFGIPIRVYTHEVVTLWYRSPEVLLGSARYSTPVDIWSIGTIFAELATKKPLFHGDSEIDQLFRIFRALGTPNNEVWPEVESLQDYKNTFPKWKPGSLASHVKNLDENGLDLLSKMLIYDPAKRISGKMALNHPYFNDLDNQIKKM
Chain of Cyclin-dependent kinase 1/cyclin B1 (Homo sapiens) (P14635 whole entry, looked up): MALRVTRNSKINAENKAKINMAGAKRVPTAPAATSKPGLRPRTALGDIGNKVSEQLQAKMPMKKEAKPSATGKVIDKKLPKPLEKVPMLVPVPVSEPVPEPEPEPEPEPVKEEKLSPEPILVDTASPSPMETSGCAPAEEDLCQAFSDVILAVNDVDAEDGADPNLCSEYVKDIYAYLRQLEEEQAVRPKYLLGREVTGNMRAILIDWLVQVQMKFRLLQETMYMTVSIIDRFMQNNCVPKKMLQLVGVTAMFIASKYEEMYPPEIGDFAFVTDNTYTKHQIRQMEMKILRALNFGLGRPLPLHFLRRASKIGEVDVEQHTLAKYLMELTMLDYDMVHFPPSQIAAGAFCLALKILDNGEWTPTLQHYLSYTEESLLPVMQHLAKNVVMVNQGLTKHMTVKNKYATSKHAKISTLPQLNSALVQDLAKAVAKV
Chain of Serine/threonine-protein kinase ICK (Homo sapiens) (Q9UPZ9 whole entry): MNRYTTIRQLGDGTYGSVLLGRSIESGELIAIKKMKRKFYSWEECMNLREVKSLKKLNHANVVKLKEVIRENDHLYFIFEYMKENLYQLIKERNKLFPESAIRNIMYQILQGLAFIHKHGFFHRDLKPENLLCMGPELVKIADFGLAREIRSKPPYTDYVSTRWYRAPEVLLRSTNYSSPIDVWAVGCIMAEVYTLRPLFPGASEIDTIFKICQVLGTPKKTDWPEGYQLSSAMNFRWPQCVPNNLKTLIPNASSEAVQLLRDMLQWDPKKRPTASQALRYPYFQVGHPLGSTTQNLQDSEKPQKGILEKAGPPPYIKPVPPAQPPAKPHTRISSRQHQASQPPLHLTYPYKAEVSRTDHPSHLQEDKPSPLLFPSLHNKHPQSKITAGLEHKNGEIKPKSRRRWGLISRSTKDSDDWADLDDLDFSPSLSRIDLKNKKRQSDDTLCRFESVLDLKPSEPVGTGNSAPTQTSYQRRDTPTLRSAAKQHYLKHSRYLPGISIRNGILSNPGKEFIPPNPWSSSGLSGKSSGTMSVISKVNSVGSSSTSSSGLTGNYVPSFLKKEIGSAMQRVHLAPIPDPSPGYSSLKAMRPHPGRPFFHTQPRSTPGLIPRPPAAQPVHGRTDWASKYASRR
Chain of Serine/threonine-protein kinase 16 (Homo sapiens) (O75716 whole entry): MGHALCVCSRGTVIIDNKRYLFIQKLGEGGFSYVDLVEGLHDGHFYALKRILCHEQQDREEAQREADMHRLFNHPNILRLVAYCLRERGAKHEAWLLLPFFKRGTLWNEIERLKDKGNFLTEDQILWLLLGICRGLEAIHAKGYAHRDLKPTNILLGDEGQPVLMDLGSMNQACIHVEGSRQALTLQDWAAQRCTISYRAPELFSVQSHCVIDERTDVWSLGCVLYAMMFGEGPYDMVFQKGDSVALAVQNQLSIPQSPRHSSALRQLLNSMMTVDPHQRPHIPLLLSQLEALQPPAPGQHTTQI

OCCOCc1cn(CCNc2nonc2/C(=N/O)Nc2ccc(F)c(Br)c2)nn1
inhibition [1]: inactive
inhibition [2]: inactive
Activity [3]: 0.73%
K [4]: 0.0161 min⁻¹
Activity [5]: Active
inhibition [6]: inactive
inhibition [7]: inactive
inhibition [8]: inactive
Vd [9]: 0.88 L/kg
inhibition [10]: inactive
inhibition [11]: inactive
inhibition [12]: inactive
inhibition [13]: inactive
inhibition [14]: inactive
inhibition [15]: inactive
inhibition [16]: inactive
inhibition [17]: Active
inhibition [18]: inactive
inhibition [19]: inactive
inhibition [20]: Active
inhibition [21]: inactive
inhibition [22]: Active
inhibition [23]: inactive
efflux ratio [24]: 6.4
Activity [25]: Non-Toxic
microsomal CLint [26]: 30.1 µL/min/mg
inhibition [27]: inactive
inhibition [28]: inactive
Papp A→B [29]: 7.2 ×10⁻⁶ cm/s
inhibition [30]: inactive
fraction unbound [31]: 0.0968
inhibition [32]: inactive
inhibition [33]: inactive
inhibition [34]: inactive
inhibition [35]: inactive
inhibition [36]: inactive
inhibition [37]: inactive
inhibition [38]: inactive
inhibition [39]: inactive
inhibition [40]: inactive
Activity [41]: Active
inhibition [42]: inactive
inhibition [43]: inactive
inhibition [44]: inactive
